Data on 15 molecules can be found in patent publication US20240254089A1, “MODULATORS OF MAS-RELATED G-PROTEIN RECEPTOR X4 AND RELATED PRODUCTS AND METHODS” (ESCIENT PHARMACEUTICALS, INC., priority 2020, published 2024).

The experiment concerns the target T1, human MRGPR X4 (Homo sapiens, UniProt Q96LA9).
T1 construct: expressed in transfected cells
In words: MRGPR X4 antagonist activity, IP-One Gq HTRF assay in stably transfected HEK cells. The class given is cell-based. An outline of the steps: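 IC50 comes from HTRF IP-1 accumulation in stably transfected HEK cells expressing human MRGPR X4. Compounds (10 uM top, 1:3 serial, 10 points) were co-incubated with 10 μM bilirubin, 20 μM deoxycholic acid or 100 μM conjugated bilirubin in LiCl-containing buffer, pH 8, for 1 h at 37 °C plus 30 min at room temperature.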
For orientation: In TR-FRET formats the signal depends on donor and acceptor labels being close together.

T1 sequence (Q96LA9 whole entry): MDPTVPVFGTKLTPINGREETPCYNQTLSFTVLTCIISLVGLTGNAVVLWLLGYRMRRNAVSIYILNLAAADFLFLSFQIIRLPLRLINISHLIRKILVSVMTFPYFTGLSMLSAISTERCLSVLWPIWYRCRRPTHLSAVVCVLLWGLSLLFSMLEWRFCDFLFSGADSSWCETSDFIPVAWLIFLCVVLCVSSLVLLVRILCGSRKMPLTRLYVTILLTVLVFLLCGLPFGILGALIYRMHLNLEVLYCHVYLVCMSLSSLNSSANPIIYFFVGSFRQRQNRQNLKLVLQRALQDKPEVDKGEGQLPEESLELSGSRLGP

In general, IC50 refers to the concentration that inhibits the measured activity by half. A higher IC50 goes with weaker potency in that assay. With `Cc1ccc2c(c1)c(C(=O)NCCc1nnc3ccccn13)nn2Cc1ccc(Cl)cc1` [Compound 530, N-(2-([1,2,4]triazolo[4,3-a]pyridin-3-yl)ethyl)-1-(4-chlorobenzyl)-5-methyl-1H-indazole-3-carboxamide], the IC50 is below 0.1 µM.

The molecule `Cc1cccc(CCNC(=O)c2cn(Cc3ccc(Cl)cc3)c3ccccc23)c1` [Compound 180] came in with an IC50 of 0.1 to 0.5 µM.

As for `Cc1c(C(=O)NCCc2cccnc2)c2ccccc2n1Cc1ccc(Cl)cc1` [Compound 227], the IC50 was above 2.5 µM.

`COc1ncccc1CCNC(=O)c1cn(Cc2ccc(Cl)cc2)c2ccccc12` [Compound 155] returned an IC50 of 0.1 to 0.5 µM.

`COc1cccc(CCNC(=O)c2nn(Cc3ccc(Cl)cc3)c3ccccc23)n1` [Compound 75] registered an IC50 of 0.501 to 1 µM.

`O=C(NCCc1ccc(Cl)c(F)c1)c1cn(Cc2ccc(Cl)cc2)c2ccccc12` [Compound 205] gave an IC50 of 1 to 2.5 µM.

Take `Cc1ncsc1CCNC(=O)c1nn(Cc2ccc(Cl)cc2)c2ccccc12` [Compound 367]: the IC50 was 0.1 to 0.5 µM.

Take `CC(=O)c1ccc(Cn2cc(C(=O)NCCc3cccnc3)c3ccccc32)cc1` [Compound 191]: the IC50 is 0.501 to 1 µM.

`Cc1ccc(Cn2nc(C(=O)NCCc3cn(C)c4ccccc34)c3ccccc32)cc1` [Compound 94] came in with an IC50 of 1 to 2.5 µM.

For `Cc1cc(Cn2nc(C(=O)NCCc3nnc4n3CCCCC4)c3ccccc32)ccc1Cl` [Compound 7], the IC50 is below 0.1 µM.

For the molecule `O=C(Nc1cnc2ccccc2c1)c1nn(Cc2ccc(Cl)cc2)c2ccccc12` [Compound 134], the IC50 fell in the range of 1 to 2.5 µM.

As to `Cc1ccc(Cn2nc(C(=O)NCCc3nnc4n3CCCCC4)c3c(C#N)cccc32)cc1` [Compound 26], the IC50 was below 0.1 µM.

The molecule `O=C(NCCc1ccc(Cl)c(F)c1)c1cn(Cc2ccc(C(F)(F)F)cc2)c2ccccc12` [Compound 209] came in with an IC50 of 1 to 2.5 µM.

In turn, `O=C(NCCc1ccc(Cl)c(F)c1)c1cn(CCN2CCC(F)(F)CC2)c2ccccc12` [Compound 223] displayed an IC50 of 1 to 2.5 µM.

Molecule `O=C(NCCc1ccccc1O)c1nn(Cc2ccc(Cl)cc2)c2ccccc12` [Compound 20] returned an IC50 below 0.1 µM.
